# Laboratory results reported in US10335388B2, “Combination therapy of a HIF-2-alpha inhibitor and an immunotherapeutic agent and uses thereof” (PELOTON THERAPEUTICS, INC., priority 2015, dated 2019).
# Read-outs that look alike come from different tables or passages of the source.
# Tests used:
# [1] = test system: 786-O-Hif-Luc cells; test: Luciferase assay (HIF responsive element reporter); settings: 24 h
# Protocol: A pool of infected cells were then selected against 2 μg/mL of puromycin (P8833, Sigma) for 10 days followed by limited dilution to select single clones.
# Each concentration was tested in triplicate. After about 24 hours, luciferase activity was determined using ONE-Glo Luciferase Assay Reagent (E6110, Promega) following the manufacturer's recommended procedure. EC50 were calculated using Dotmatics software.
# [2] = molecular target: T1, HIF-2α HIS TAG-PASB Domain (Homo sapiens, UniProt Q99814); test: HIF-2α Scintillation Proximity Assay (SPA); type: binding; settings: displacement of tritiated probe Compound 183
# T1 construct: 100 nM HIF-2α HIS TAG-PASB Domain
# T1 sequence (Q99814 240-350 limits assumed): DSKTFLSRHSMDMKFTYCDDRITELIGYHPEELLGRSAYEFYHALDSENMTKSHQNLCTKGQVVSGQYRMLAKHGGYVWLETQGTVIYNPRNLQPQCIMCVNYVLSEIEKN
# Protocol: The total assay volume was about 100 μL in the following configuration: 2 μL compound in 100% DMSO, 88 μL buffer with protein and probe and 10 μL of SPA beads. […] The percent inhibition was determined and IC50 values were calculated using the Dotmatics system based on the following equation: % inhibition=[(high control−sample)/(high control−low control)]×100.
# [3] = test system: 786-O cells; test: VEGF ELISA assay; type: cell-based; settings: Homo sapiens, 786-0
# Protocol: Each concentration was plated in duplicate. About 20 hours later, medium was removed by suction and each well was supplied with 180 μL of growth medium. About 20 µl freshly-made 10× compound stocks were added to each well. […] The EC50 was calculated by GraphPad Prism using the dose-response-inhibition (four parameter) equation. The cell-seeded plate was then subjected to CellTiter-Glo luminescence cell viability assay (Promega) by adding 50 μL of Celltiter Glo reagent into each well and shaking the plate for 8 minutes at 550 rpm (Thermomixer R, Eppendorf) then the luminescence signal immediately read in a plate reader (3 second delay, 0.5 second/well integration time, Synergy 2 multi Detection Microplate reader).
# [4] = test system: B16-F10 mouse melanoma cells; test: Mouse melanoma B16-F10 syngeneic tumor model; settings: C57BL/6 mice, after 14 days of treatment; Compound 163 30 mg/kg BID, α-PD-1 or IgG control 10 mg/kg BIW
# [5] = test system: CT26.WT mouse carcinoma cells; test: Mouse colon CT26 syngeneic tumor model; settings: BALB/c mice, after 20 days of treatment; Compound 163 30 mg/kg BID, α-CTLA-4 or IgG control 10 mg/kg BIW
# [6] = read-out: Mean Luciferase EC50 (nM)
# [7] = read-out: Mean Luciferase EC50 (nM), 786-O-Hif-Luc cells, about 24 hours
"EC50 [1, 6]",IC50 [2],Structure (SMILES),other results
–,50 to 249 nM,CCCOc1ccc(S(=O)(=O)C(F)F)c2c1CC(F)(F)[C@H]2O [Compound 676],"EC50 [1, 7]: 50 to 249 nM"
–,> 1000 nM,O=S(=O)(c1ccc(OC2CCCNC2)c2c1C(O)C(F)(F)C2)C(F)(F)F (stereo not shown) [Compound 797],–
–,> 1000 nM,O=S(=O)(c1ccc(-c2cccc(O)c2)c2c1[C@H](O)C(F)(F)C2)C(F)(F)F [Compound 564],–
50 to 249 nM,–,N#Cc1cc(F)cc(Oc2ccc(S(=O)(=O)C(F)(F)F)c3c2CC(F)(F)[C@H]3N)c1 [Compound 290],–
–,< 50 nM,O=S(=O)(c1ccc(OC[C@@H]2CC2(F)F)c2c1[C@H](O)C(F)(F)C2)C(F)(F)F [Compound 728],"EC50 [1, 7]: < 50 nM"
–,50 to 249 nM,N#Cc1cc(F)cc(Oc2ccc3c(c2C(F)F)[C@@H](N)C(F)(F)S3(=O)=O)c1 [Compound 387],–
< 50 nM,–,CS(=O)(=O)c1ccc(Oc2cc(F)cc(C#N)c2)c2c1[C@H](O)[C@H](F)C2 [Compound 231],–
–,< 50 nM,N#C[C@H]1C[C@H](Oc2ccc(S(=O)(=O)C(F)(F)F)c3c2CC(F)(F)C3O)C1 (stereo partly shown) [Compound 786],"EC50 [1, 7]: < 50 nM"
–,> 1000 nM,CCCOc1ccc(C2CC2)c2c1CC(F)(F)C2O (stereo not shown) [Compound 685],–
–,250 to 1000 nM,CS(=O)(=O)c1ccc(OC2CCOCC2)c2c1[C@H](O)C(F)(F)C2 [Compound 775],"EC50 [1, 7]: 250 to 1000 nM"
250 to 1000 nM,–,CS(=O)(=O)c1ccc(Oc2cc(F)cc(C#N)c2)c2c1[C@H](O)[C@@H](F)C2 [Compound 271],–
< 50 nM,–,N#Cc1cncc(Oc2ccc(S(=O)(=O)C(F)(F)F)c3c2CC(F)(F)[C@H]3O)c1 [Compound 235],–
50 to 249 nM,–,N#Cc1cc(F)cc(Oc2ccc(S(N)(=O)=O)c3c2CC(F)(F)[C@H]3O)c1 [Compound 252],–
–,50 to 249 nM,CS(=O)(=O)c1ccc(OC[C@H]2CC2(F)F)c2c1[C@H](O)C(F)(F)[C@@H]2F [Compound 769],"EC50 [1, 7]: 250 to 1000 nM"
–,< 50 nM,O=S(=O)(CF)c1ccc(O[C@H]2C[C@H](F)C2)c2c1[C@H](O)C(F)(F)[C@@H]2F [Compound 742],–
–,> 1000 nM,CC(C)(C)OC(=O)N[C@H]1C[C@@H](Oc2ccc(S(=O)(=O)C(F)(F)F)c3c2CC(F)(F)[C@H]3O)C1 [Compound 722],"EC50 [1, 7]: > 1000 nM"
–,250 to 1000 nM,O=S(=O)(c1ccc(OC2CC(O)C2)c2c1[C@H](O)C(F)(F)C2)C(F)(F)F (stereo partly shown) [Compound 644],"EC50 [1, 7]: 250 to 1000 nM"

"EC50 [1, 6]",IC50 [2],Structure (SMILES),other results
–,> 1000 nM,O[C@H]1c2c(C(F)(F)F)ccc(OC(F)F)c2CC1F (stereo partly shown) [Compound 671],–
–,> 1000 nM,N#CC1CCc2c(OCC(F)F)ccc(C(F)(F)F)c21 (stereo not shown) [Compound 691],–
< 50 nM,–,CS(=O)(=O)c1ccc(Oc2cc(Cl)cc(C#N)c2)c2c1[C@H](O)C(F)(F)C2 [Compound 234],EC50 [3]: 50 to 249 nM
50 to 249 nM,–,CNS(=O)(=O)c1ccc(Oc2cc(F)cc(C#N)c2)c2c1[C@H](O)C(F)(F)C2 [Compound 254],–
250 to 1000 nM,–,N#Cc1cc(F)cc(Oc2ccc(S(N)(=O)=O)c3c2[C@H](F)C(F)(F)[C@H]3O)c1 [Compound 339],–
–,> 1000 nM,O=S(=O)(c1ccc(OC2CCNCC2)c2c1C(O)C(F)(F)C2)C(F)(F)F (stereo not shown) [Compound 606],–
50 to 249 nM,–,CNS(=O)(=O)c1ccc(Oc2cc(F)cc(F)c2)c2c1[C@H](O)C(F)(F)C2 [Compound 251],–
< 50 nM,–,CS(=O)(=O)c1ccc(Oc2cc(F)cc(C#N)c2)c2c1C(O)C(F)C2 (stereo not shown) [Compound 232],–
< 50 nM,–,NS(=O)(=O)c1ccc(Oc2cc(F)cc(F)c2)c2c1[C@H](O)C(F)(F)C2 [Compound 256],–
< 50 nM,–,[2H][C@]1(O)c2c(S(C)(=O)=O)ccc(Oc3cc(F)cc(C#N)c3)c2CC1(F)F [Compound 247],–
< 50 nM,–,N#Cc1cc(F)cc(Oc2ccc(S(N)(=O)=O)c3c2[C@@H](F)C(F)(F)[C@H]3O)c1 [Compound 338],–
< 50 nM,–,[2H]C([2H])([2H])S(=O)(=O)c1ccc(Oc2cc(F)cc(C#N)c2)c2c1[C@]([2H])(O)C(F)(F)C2 [Compound 229],–
–,< 50 nM,O=S(=O)(c1ccc(OCC(F)F)c2c1[C@H](O)C(F)(F)C2)C(F)F [Compound 677],"EC50 [1, 7]: 50 to 249 nM"
–,50 to 249 nM,O[C@H]1c2c(C(F)(F)F)ccc(OCC(F)F)c2C[C@H]1F [Compound 696],"EC50 [1, 7]: 50 to 249 nM"
–,> 1000 nM,O=S(=O)(c1ccc(O[C@@H]2CCCc3cn[nH]c32)c2c1[C@H](O)C(F)(F)C2)C(F)(F)F [Compound 729],–
–,< 50 nM,CS(=O)(=O)c1ccc(OC2CCOCC2)c2c1[C@H](O)C(F)(F)[C@@H]2F [Compound 796],"EC50 [1, 7]: 250 to 1000 nM"

# More lines, now with the values behind:
Structure (SMILES),"EC50 [1, 6]",IC50 [2],other results
CS(=O)(=O)c1ccc(Oc2cc(F)cc(C#N)c2)c2c1[C@@H](O)C(F)(F)C2 [Compound 226],> 1000 nM,–,–
CS(=O)(=O)c1ccc(Oc2cc(F)cc(C#N)c2)c2c1C(O)C(F)(F)C2 (stereo not shown) [Compound 223],50 to 249 nM,–,–
N#Cc1c(Oc2cc(F)cc(Cl)c2)ccc(S(=O)(=O)C(F)(F)F)c1F [Compound 153],–,50 to 249 nM,–
O=S(=O)(c1ccc(Oc2cc(F)cc(Cl)c2)c(Br)c1C=NO)C(F)(F)F [Compound 107],–,50 to 249 nM,"EC50 [1, 7]: 250 to 1000 nM"
N#Cc1cc(F)cc(Oc2ccc(S(=O)(=O)C(F)F)c3c2CC[C@H]3O)c1 [Compound 155],50 to 249 nM,–,EC50 [3]: 50 to 249 nM
N#Cc1cc(F)cc(Oc2ccc(S(=O)(=O)C(F)F)c3c2CCC3F)c1 (stereo not shown) [Compound 202],–,250 to 1000 nM,"EC50 [1, 7]: > 1000 nM"
N#Cc1cc(F)cc(Oc2ccc(S(=O)(=O)C(F)F)c3c2CCC3O)c1 (stereo not shown) [Compound 78],–,–,EC50 [3]: 250 to 1000 nM
CS(=O)(=O)c1ccc(Oc2cc(F)cc(F)c2)c2c1C(O)C(F)(F)C2 (stereo not shown) [Compound 159],–,< 50 nM,"EC50 [3]: < 50 nM; EC50 [1, 7]: < 50 nM"
N#Cc1ccc(Oc2cc(F)cc(F)c2)c2c1[C@H](O)C(F)(F)C2 [Compound 67],–,–,EC50 [3]: 50 to 249 nM
N#Cc1cc(F)cc(Oc2ccc(S(=O)(=O)C(F)(F)F)c3c2CC[C@H]3O)c1 [Compound 57],50 to 249 nM,–,–
CS(=N)(=O)c1ccc(Oc2cc(F)cc(F)c2)c2c1[C@H](O)C(F)(F)C2 (stereo partly shown) [Compound 192],–,50 to 249 nM,"EC50 [1, 7]: 250 to 1000 nM"
O=S(=O)(c1ccc(Oc2cc(F)cc(Cl)c2)c(C(F)F)c1)C(F)(F)F [Compound 124],250 to 1000 nM,–,EC50 [3]: 250 to 1000 nM
O=S(=O)(CF)c1ccc(OC2CC(F)C2)c2c1[C@H](O)C(F)(F)[C@@H]2F (stereo partly shown) [Compound 742],–,–,"EC50 [3]: < 50 nM; EC50 [1, 7]: < 50 nM"
"CS(=O)(=O)c1ccc(Oc2cc(F)cc(C#N)c2)c2c1[C@H](O)[C@H](F)[C@@H]2F [Compound 289, 3-[(1S,2S,3R)-2,3-difluoro-1-hydroxy-7-methylsulfonyl-indan-4-yl]oxy-5-fluoro-benzonitrile]",< 50 nM,–,–
C[C@H]1C[C@@H](O)c2c(S(=O)(=O)C(F)F)ccc(Oc3cc(F)cc(Cl)c3)c21 [Compound 7a],250 to 1000 nM,–,–
"CS(=O)(=O)c1ccc(Oc2cc(F)cc(C#N)c2)c2c1[C@H](O)C(F)(F)C2 [Compound 163, (S)-3-((2,2-Difluoro-1-hydroxy-7-(methylsulfonyl)-2,3-dihydro-1H-inden-4-yl)oxy)-5-fluorobenzonitrile]",< 50 nM,–,Tumor size (mm^3) Mean ± SEM [4]: 2133.89 ± 306.44 mm^3; Tumor size (mm^3) Mean ± SEM [5]: 1612 ± 305 mm^3
O=S(=O)(c1ccc(Oc2cc(F)cc(Cl)c2)c(Cl)c1CO)C(F)F [Compound 41],250 to 1000 nM,–,EC50 [3]: 250 to 1000 nM
N#Cc1cccc(Oc2ccc(S(=O)(=O)C(F)F)c3c2CC[C@H]3O)c1 [Compound 156],250 to 1000 nM,–,–
O=S(=O)(c1ccc(Oc2cc(F)cc(Cl)c2)c2c1[C@H](O)CC2)C(F)F [Compound 1],–,–,EC50 [3]: 250 to 1000 nM
CCS(=O)(=O)c1ccc(Oc2cc(F)cc(C#N)c2)c2c1[C@H](O)C(F)(F)C2 [Compound 206],50 to 249 nM,–,–
O=S(=O)(c1ccc(Oc2cc(F)cc(Cl)c2)c2c1C(O)CC2)C(F)F (stereo not shown) [Compound 17],–,–,EC50 [3]: 50 to 249 nM
N#Cc1cc(Cl)cc(Oc2ccc(S(=O)(=O)CF)c3c2CC(F)(F)[C@H]3O)c1 [Compound 167],< 50 nM,–,–
CS(=O)(=O)c1ccc(Oc2cc(F)cc(C#N)c2)c2c1[C@H](N)C(F)(F)C2 [Compound 165],50 to 249 nM,–,–
CC(=NO)c1c(S(=O)(=O)C(F)(F)F)ccc(Oc2cc(F)cc(Cl)c2)c1Br [Compound 106],–,250 to 1000 nM,–
